According to patent publication US20190021380A1 (priority 2014, published 2019):
Where “and” joins values, the source holds several entries; their conditions need not be identical. Equal values may be shown once.

Legend:
T1R1/T1R3 receptor [1] = target: T1, T1R1/T1R3 receptor (Felis catus, UniProt E3UMS2); test: Example 8: PAM screening of transmembrane compounds with GMP and Ala on T1R1/T1R3 in HEK293 cells; format: cell-based, cat; conditions: for PAM profile assessment: in the presence of GMP and Alanine, in words; for T1R1/T1R3 PAM: compound at 0.01, 0.1, 1 mM in combination with GMP+Ala mixtures (T1-T4), PAM if response to the combination is greater than the sum of the responses to compound alone and to GMP+Ala alone
Text: HEK293 cells that stably express T1R3 and inducibly express T1R1 were exposed to transmembrane compound alone or in combination with Ala and GMP to activate the umami receptor. Activation of the T1R1/T1R3 receptor was detected by a change in intracellular calcium levels using a calcium sensitive fluorescent dye and/or a luminescent reporter system. […] A FLIPR® Tetra or a FlexStation® 3 was used for data capture.
Dose response curves were generated for each transmembrane compound at concentrations of 0 (buffer only), 0.01, 0.1 and 1 mM, wherein each of the three concentrations of transmembrane compound was tested in combination with 0.03 mM GMP+100 mM Ala (T1); 0.6 mM GMP+10 mM Ala (T2); 0.1 mM GMP+60 mM Ala (T3) and 0.3 mM GMP+60 mM Ala (T4). The T4 mixture was also tested in a 2-fold dilution series (the T4(X) Concentration). In these experiments, the first test concentration was 2× (2 times) the T4 concentration. The subsequent test concentrations were 2-fold dilutions from that (1×, 0.5× etc.). This dilution series was tested with or without the addition of the test compound at a constant 0.3 mM concentration.
Activation of the umami receptor was also determined in the presence of 1 mM GMP+100 mM Ala to generate a “maximum” umami receptor activation level.

T1R1/T1R3 receptor [2] = target: T1, T1R1/T1R3 receptor; test: cell-based; format: cell-based
Text: (§1) HEK293 cells that stably express T1R3 and inducibly express T1R1 were exposed to transmembrane compounds alone or in combination with one or more amino acids and/or one or more nucleotides to activate the umami receptor. Activation of the T1R1/T1R3 receptor was detected by a change in intracellular calcium levels using a calcium sensitive fluorescent dye. Cells that express T1R3 but not T1R1 were used as a control. A FLIPR® Tetra or a FlexStation® 3 was used for data capture.
(§2) In each experiment, serial dilutions of up to 10 mM of the transmembrane compound were added to the T1R1/T1R3-expressing cells.

T1R1/T1R3 receptor [3] = target: T1, T1R1/T1R3 receptor; test: Example 8: agonist screening of transmembrane compounds on T1R1/T1R3 in HEK293 cells; format: cell-based, cat; conditions: for agonist profile assessment: transmembrane compound alone, in words; for T1R1/T1R3 agonist: transmembrane compound tested at 0.01, 0.1 and 1 mM, HEK293 cells expressing T1R1/T1R3, calcium dye and/or luminescent reporter
Experimental: HEK293 cells that stably express T1R3 and inducibly express T1R1 were exposed to a transmembrane compound. Activation of the T1R1/T1R3 receptor was detected by a change in intracellular calcium levels using a calcium sensitive fluorescent dye and/or a luminescent reporter system. […] A FLIPR® Tetra or a FlexStation® 3 was used for data capture.
Each transmembrane compound was tested at concentrations of 0.01 mM, 0.1 mM, and 1 mM. […] To generate the dose response curves, the transmembrane compound was tested at concentrations of between 0.0001 mM and 1.0 mM in the presence of GMP and Ala.

T1R1/T1R3 receptor [4] = target: T1, T1R1/T1R3 receptor; format: cell-based; conditions: threshold in the presence of 0.2 mM IMP; CNBD = Could not be determined
Text: as §1, §2

T1R1/T1R3 receptor [5] = target: T1, T1R1/T1R3 receptor; test: Example 6: activation of T1R1/T1R3 by transmembrane compounds, conducted as in Example 5; format: cell-based; conditions: T1R1/T1R3 EC50, +0.2 mM IMP
Text: as §1, §2

SMILES	PAM profile assessment (T1R1/T1R3 receptor [1])	agonist profile assessment (T1R1/T1R3 receptor [3])	T1R1/T1R3 PAM (T1R1/T1R3 receptor [1])	T1R1/T1R3 agonist (T1R1/T1R3 receptor [3])	also measured
CCCC(CCC)NC(=O)c1ccc2c(c1)OCO2 [N-(heptan-4-yl)benzo[d][1,3]dioxole-5-carboxamide]	PAM activity	agonist	–	–	Max resp ΔF/F +IMP (0.2 mM) (T1R1/T1R3 receptor [2]; in the presence of 0.2 mM IMP): 1.4725 and 1.393 and 1.473; Max resp % of Ala +IMP (0.2 mM) (T1R1/T1R3 receptor [2]; in the presence of 0.2 mM IMP, relative to Ala): 165.8% and 119.6%; Max resp ΔF/F +Alanine (20 mM) (T1R1/T1R3 receptor [2]; in the presence of 20 mM alanine): 1.7725 and 1.2; Max resp % of IMP +Alanine (20 mM) (T1R1/T1R3 receptor [2]; in the presence of 20 mM alanine, relative to IMP): 118.2% and 142.7%
COC(=O)C(NCc1ccccc1)c1ccccc1 (stereo not drawn) [Methyl-2-benzylamino-2-phenylacetate]	PAM activity	agonist	–	–	–
CCCC(CCC)NC(=O)c1ccc2c(c1)OCO2 [Formula 14, N-(heptan-4-yl)benzo[d][1,3]dioxole-5-carboxamide]	–	–	Yes	Yes	–
O=C(CN1C(=O)C(=O)N(CCc2cccs2)C1=O)c1cccc2ccccc12 [Formula 11, 1-(2-(naphthalen-1-yl)-2-oxoethyl)-3-(2-(thiophen-2-yl)ethyl)imidazolidine-2,4,5-trione]	–	–	No	No	–
COC(=O)[C@H](Cc1ccccc1)NCc1ccccc1 [N-Benzyl-L-phenylalanine methyl ester]	PAM activity	agonist	–	–	Thres +IMP (0.2 mM) (T1R1/T1R3 receptor [4]): 0.003 mM; EC50 (T1R1/T1R3 receptor [5]): 20 ± 1 µM
COC(=O)[C@H](CC(C)C)NCc1ccccc1.Cl [Formula 18, Benzyl-L-leucine methyl ester hydrochloride]	–	–	Yes	Yes	–
Cc1ccc(CNC(Cc2ccccc2)C(=O)O)cc1 (stereo not drawn) [Formula 23, 2-((4-methylbenzyl)amino)-3-phenylpropanoic acid]	–	–	No	No	–
N#Cc1cccc(NC(=O)CN2C(=O)C(=O)N(Cc3ccccc3)C2=O)c1 [Formula 9, 2-(3-benzyl-2,4,5-trioxoimidazolidin-1-yl)-N-(3-cyanophenyl)acetamide]	–	–	No	No	–
O=C(CN1C(=O)C(=O)N(CCc2cccs2)C1=O)c1ccc2c(c1)OCO2 [Formula 7, 1-(2-(benzo[d][1,3]dioxol-5-yl)-2-oxoethyl)-3-(2-(thiophen-2-yl)ethyl)imidazolidine-2,4,5-trione]	–	–	No	No	–
